Experimental data from patent publication US20080119462A1, “METHOD FOR TREATING VASCULAR HYPERPERMEABLE DISEASE” (Sucampo AG, priority 2003, published 2008).
Where a name gives a salt, the structure may show the parent alone.

Legend:
diabetic rats = assay: Ocular permeability in STZ diabetic rats (leakage of fluorescein into the vitreous); type: in vivo, rat; conditions: daily from 2 weeks after STZ, mean ± S.E.M., 10 rats
Method: Diabetes in rats was induced with an intraperitoneal (i.p.) injection of 65 mg/ml/kg of streptozotocin (STZ) in 2 mmol/l citrate buffer (pH 4.5) after a 20-h fast. At the same time control rats were injected with an equal volume of 2 mmol/l citrate buffer. Plasma glucose level was checked by a calorimetric method. At day 3 of STZ treatment, the rats were diagnosed with diabetes showing a plasma glucose level of 350 mg/dl.
The treatment of Compound A was given daily from 2 weeks after STZ treatment for 2 weeks. At 24 hrs after final treatment of Compound A, the vascular permeability in oculus was investigated based on the leakage of dye into the vitreous 30 min after intravenous injection of fluorescein solution (40 mg/ml/kg). Permeability was expressed as vitreous/plasma ratio of fluorescein concentration measured by a fluorophotometer. At the same time, the plasma SSAO activity was checked by the radiochemical-enzyme assay using ^14C-benzylamine (2×10^−5 mol/l final concentration) as substrate.
In the same manner as in Example 2, the effect of various VAP-1 inhibitors on ocular permeability was determined in diabetic rats.

Compound | melting point | Vitreous/Plasma Ratio of Fluorescein Concentration (diabetic rats; 0.1 mg/kg, s.c.) | Vitreous/Plasma Ratio of Fluorescein Concentration (diabetic rats; 0.003%, ocular instillation, u.i.d.)
CC(=O)Nc1nc(CCc2ccc(C(=N)N)cc2)cs1.Cl | 229.5 to 231 °C |  | 
CC(=O)Nc1nc(CCc2ccc(CC(=N)N)cc2)cs1 (as salt: hydrochloride) [Production Example 59, N-(4-{2-[4-(2-amino-2-iminoethyl)phenyl]ethyl}-1,3-thiazol-2-yl)acetamide] | 190.5 to 192 °C |  | 
CC(=O)Nc1nc(CCc2ccc(CON)cc2)cs1 [Compound B, N-[4-(2-{4-[(aminooxy)methyl]phenyl}ethyl)-1,3-thiazol-2-yl]acetamide] | 130 to 130.5 °C | 7.54 ± 0.80 ×10^−3 | 9.86 ± 1.65 ×10^−3
CC(=O)Nc1nc(CCc2ccc(NC3=NCCS3)cc2)cs1 [Production Example 2, N-(4-(2-(4-(4,5-dihydro-1,3-thiazol-2-ylamino)phenyl)ethyl)-1,3-thiazol-2-yl)acetamide] | 218 to 219.5 °C |  | 
C=NOCc1ccc(CCc2csc(NC(C)=O)n2)cc1 [Production Example 17, N-{4-[2-(4-{[(methyleneamino)oxy]methyl}phenyl)ethyl]-1,3-thiazol-2-yl}acetamide] | 136.5 to 137 °C |  | 
CC(=O)Nc1nc(CCc2ccc(NC(=N)N)cc2)c(Cc2ccc(S(C)(=O)=O)cc2)s1 [Production Example 48, N-{4-[2-(4-{[amino(imino)methyl]amino}phenyl)ethyl]-5-[4-(methylsulfonyl)benzyl]-1,3-thiazol-2-yl}acetamide] | 228 to 229.5 °C |  | 
CC(=O)Nc1nc(CCc2ccc(NC3=NCCN3)cc2)c(Cc2ccc(S(C)(=O)=O)cc2)s1 [Production Example 55, N-{4-{2-[4-(4,5-dihydro-1H-imidazol-2-ylamino)phenyl]ethyl}-5-[4-(methylsulfonyl)benzyl]-1,3-thiazol-2-yl}acetamide] | 139 to 140 °C |  | 
CC(=N)Nc1ccc(CCc2nc(NC(C)=O)sc2Cc2ccc(S(C)(=O)=O)cc2)cc1 [Production Example 56, N-{4-{2-[4-(ethanimidoylamino)phenyl]ethyl}-5-[4-(methylsulfonyl)benzyl]-1,3-thiazol-2-yl}acetamide] | 81.5 to 83 °C |  | 
CC(=O)Nc1nc(CCc2ccc(C(=O)NC(=N)N)cc2)c(Cc2ccc(S(C)(=O)=O)cc2)s1 [Production Example 106, 4-(2-{2-(acetylamino)-5-[4-(methylsulfonyl)benzyl]-1,3-thiazol-4-yl}ethyl)-N-[amino(imino)methyl]benzamide] | 108 to 109.5 °C |  | 
